Laboratory results from PMC8910920 (International Journal of Molecular Sciences, 2022).

How the values were obtained:
rTRPM8 = target: T1, rTRPM8 (Rattus norvegicus, UniProt Q8R455); assay: Whole-cell patch-clamp, HEK293-rTRPM8 cells; type: cell-based
T1 construct: expressed in transfected cells
Method: To confirm the antagonistic activity, electrophysiology (patch-clamp) studies were performed on HEK293 cells expressing the rTRPM8 channel. […] Then, using a holding voltage of −60 mV, different concentrations of RGM8-51 were used to establish the concentration/response curve for rTRPM8 current blockade.
Whole-cell patch-clamp recordings from HEK293-rTRPM8 cells were carried out 2 days after seeding on 12 mm Ø glass coverslips treated with poly-L-lysine solution (Sigma Aldrich, Spain); the intracellular pipette solution contained (in mM) 150 NaCl, 5 EGTA, 3 MgCl2 and 10 HEPES, adjusted to pH 7.2 with NaOH, and the extracellular solution contained (in mM) 150 NaCl, 6 CsCl, 1.5 CaCl2, 1 MgCl2, 10 D-glucose and 10 HEPES, adjusted to pH 7.4 with NaOH. The TRPM8 activity was measured by the application of two pulses of 100 μM menthol in a time interval of 2 min and a 30 s perfusion of the different compound concentrations before the second menthol pulse.
Data were sampled at 10 kHz (EPC10 amplifier with PatchMaster 2.53 software, HEKA Electronics, Lambrecht, Germany) and low-pass filtered at 3 kHz for analysis (PatchMaster 2.53 and GraphPad Prism 6.0, Graphpad Software, San Diego, CA, USA). The series resistance was <10 MΩ and to minimize voltage errors was compensated by 60–80%. […] Cell capacitance was measured and used to estimate the current density (J, pA/pF).
Data analysis: For the whole-cell patch-clamp experiments, results are expressed as the percentage of remaining activation of the TRPM8 channel. This is calculated by normalizing the ratio (p2/p1) of testing conditions to the ratio (p2/p1) of the control condition. […] All data are expressed as the mean ± standard error of the mean (SEM) (n = 5–8). In the current-clamp experiments, the change in membrane potential is expressed as the difference between the resting membrane potential and the membrane potential after the addition of a stimuli. Data were analyzed as previously described (GraphPad 6.0, one-way ANOVA followed by Bonferroni multiple comparisons test, and ROUT method, Q = 10%).

hTRPV1 = target: T2, hTRPV1 (Homo sapiens, UniProt Q8NER1); assay: hTRPV1 agonist assay (Ca2+ fluorimetry, CHO cells); type: cell-based; settings: 10 μM
T2 construct: host or cells: CHO
Method: These studies were subcontracted to Eurofins-CEREP or Eurofins-PANLABS. Briefly, agonists and antagonist assays were performed in cell cultures overexpressing the corresponding channel (CHO: TRPV1 and TRPA1; HEK293: TRPV3 and ASIC3). In vitro pharmacology, cellular channel functional assays: the compound was prepared in assay buffer to the final concentration, 10 μM. The compound wells, reference agonist and background vehicle controls were prepared in DMSO at 0.3%. The reference agonist for each Ion Channel assayed was prepared in a similar manner to serve as the assay control. […] The agonist assay was conducted on fluorimeter instruments where the test compound, vehicle controls, and reference agonist were added to the assay plate after a fluorescence baseline was established. […] For the antagonist assay, the compound was pre-incubated for five minutes at room temperature, and then challenged with the EC80 concentration of the reference agonist after establishment of a fluorescence baseline. […] Binding assay results are expressed as a percent of control specific binding. […] Aqueous solubility (μM) was determined by comparing the peak area of the principal peak in a calibration standard (200 μM) containing organic solvent (methanol/water, 60/40, v/v) with the peak area of the corresponding peak in a buffer sample. […] The amount of compound in organic phase was calculated by subtraction. […]

CACO-2 cell monolayers = assay: Caco-2 permeability; type: in vitro ADME
Method: These studies were subcontracted to Eurofins-CEREP or Eurofins-PANLABS. Briefly, agonists and antagonist assays were performed in cell cultures overexpressing the corresponding channel (CHO: TRPV1 and TRPA1; HEK293: TRPV3 and ASIC3). In vitro pharmacology, cellular channel functional assays: the compound was prepared in assay buffer to the final concentration, 10 μM. The compound wells, reference agonist and background vehicle controls were prepared in DMSO at 0.3%. The reference agonist for each Ion Channel assayed was prepared in a similar manner to serve as the assay control. The reference agonist for each Ion Channel was included at Emax (the concentration where the reference agonist elicited a maximal response). The agonist assay was conducted on fluorimeter instruments where the test compound, vehicle controls, and reference agonist were added to the assay plate after a fluorescence baseline was established. The agonist assay was used to assess each compound’s ability to activate each Ion Channel assayed. For the antagonist assay, the compound was pre-incubated for five minutes at room temperature, and then challenged with the EC80 concentration of the reference agonist after establishment of a fluorescence baseline. Vehicle controls and EC80 concentration of reference agonist were added to appropriate wells. The antagonist assay was used to assess each compound’s ability to inhibit activation by the corresponding Ion Channel agonist. ASIC3 ionflux antagonist assay: all recordings were obtained from a holding potential of -60 mV. The compound addition sequence was as follows: one addition of pH5.5 buffer was added to establish the baseline response, the test concentration of compound was applied for 30 s, followed by the addition of pH5.5 of compound for 2 s. Binding assays were performed in CHO cell cultures overexpressing human CGRPR, CB2 and M2 receptors. RGM8-51 (10 μM) was tested, and reference compounds used as control agonists and antagonists are detailed in Table 2, footnote. Binding assay results are expressed as a percent of control specific binding. […] Aqueous solubility (μM) was determined by comparing the peak area of the principal peak in a calibration standard (200 μM) containing organic solvent (methanol/water, 60/40, v/v) with the peak area of the corresponding peak in a buffer sample. Partition coefficient: the total amount of compound was determined as the peak area of the principal peak in a calibration standard (100 μM) containing organic solvent (methanol/water, 60/40, v/v). The amount of compound in buffer was determined as the combined, volume-corrected, and weighted areas of the corresponding peaks in the aqueous phases of three organic-aqueous samples of different composition. An automated weighting system was used to ensure the preferred use of raw data from those samples with well quantifiable peak signals. The amount of compound in organic phase was calculated by subtraction. Subsequently, Log D was calculated as the Log10 of the amount of compound in the organic phase divided by the amount of compound in the aqueous phase. […] Permeability was measured in CACO-2 monolayers. Percentage of compounds in the receptors wells was measured using HPLC. […] In vitro metabolism was measured in human liver microsomes. […] The apparent intrinsic clearance (CLint, in μL/min/mg) was calculated from the half-life time.

T1 sequence (Q8R455 whole entry): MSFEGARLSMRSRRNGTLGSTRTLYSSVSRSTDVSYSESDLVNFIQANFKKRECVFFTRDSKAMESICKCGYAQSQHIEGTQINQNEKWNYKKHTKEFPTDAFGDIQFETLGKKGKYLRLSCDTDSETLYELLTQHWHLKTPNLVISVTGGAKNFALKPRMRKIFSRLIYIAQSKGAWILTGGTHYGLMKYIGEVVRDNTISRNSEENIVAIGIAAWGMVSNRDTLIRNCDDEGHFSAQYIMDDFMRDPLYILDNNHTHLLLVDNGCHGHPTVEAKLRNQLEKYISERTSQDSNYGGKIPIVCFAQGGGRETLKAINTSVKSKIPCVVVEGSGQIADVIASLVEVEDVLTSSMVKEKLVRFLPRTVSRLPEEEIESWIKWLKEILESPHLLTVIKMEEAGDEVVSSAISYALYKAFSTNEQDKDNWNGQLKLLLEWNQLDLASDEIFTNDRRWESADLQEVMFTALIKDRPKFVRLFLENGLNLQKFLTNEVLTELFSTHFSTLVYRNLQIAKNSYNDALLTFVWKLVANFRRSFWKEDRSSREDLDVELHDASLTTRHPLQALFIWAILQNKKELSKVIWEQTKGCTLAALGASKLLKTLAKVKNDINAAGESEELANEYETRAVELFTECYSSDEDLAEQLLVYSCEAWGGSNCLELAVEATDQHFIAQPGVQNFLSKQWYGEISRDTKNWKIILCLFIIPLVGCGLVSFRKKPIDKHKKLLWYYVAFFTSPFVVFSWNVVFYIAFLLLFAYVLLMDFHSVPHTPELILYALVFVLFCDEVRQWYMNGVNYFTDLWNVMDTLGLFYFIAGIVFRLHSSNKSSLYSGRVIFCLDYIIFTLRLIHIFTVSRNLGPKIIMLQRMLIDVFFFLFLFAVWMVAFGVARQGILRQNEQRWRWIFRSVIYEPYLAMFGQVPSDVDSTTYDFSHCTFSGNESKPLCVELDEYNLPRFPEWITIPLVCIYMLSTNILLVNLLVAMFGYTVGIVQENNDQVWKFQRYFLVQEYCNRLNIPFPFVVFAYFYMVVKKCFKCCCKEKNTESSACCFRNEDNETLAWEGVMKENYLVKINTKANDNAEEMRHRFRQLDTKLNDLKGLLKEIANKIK
T2 sequence (Q8NER1 whole entry): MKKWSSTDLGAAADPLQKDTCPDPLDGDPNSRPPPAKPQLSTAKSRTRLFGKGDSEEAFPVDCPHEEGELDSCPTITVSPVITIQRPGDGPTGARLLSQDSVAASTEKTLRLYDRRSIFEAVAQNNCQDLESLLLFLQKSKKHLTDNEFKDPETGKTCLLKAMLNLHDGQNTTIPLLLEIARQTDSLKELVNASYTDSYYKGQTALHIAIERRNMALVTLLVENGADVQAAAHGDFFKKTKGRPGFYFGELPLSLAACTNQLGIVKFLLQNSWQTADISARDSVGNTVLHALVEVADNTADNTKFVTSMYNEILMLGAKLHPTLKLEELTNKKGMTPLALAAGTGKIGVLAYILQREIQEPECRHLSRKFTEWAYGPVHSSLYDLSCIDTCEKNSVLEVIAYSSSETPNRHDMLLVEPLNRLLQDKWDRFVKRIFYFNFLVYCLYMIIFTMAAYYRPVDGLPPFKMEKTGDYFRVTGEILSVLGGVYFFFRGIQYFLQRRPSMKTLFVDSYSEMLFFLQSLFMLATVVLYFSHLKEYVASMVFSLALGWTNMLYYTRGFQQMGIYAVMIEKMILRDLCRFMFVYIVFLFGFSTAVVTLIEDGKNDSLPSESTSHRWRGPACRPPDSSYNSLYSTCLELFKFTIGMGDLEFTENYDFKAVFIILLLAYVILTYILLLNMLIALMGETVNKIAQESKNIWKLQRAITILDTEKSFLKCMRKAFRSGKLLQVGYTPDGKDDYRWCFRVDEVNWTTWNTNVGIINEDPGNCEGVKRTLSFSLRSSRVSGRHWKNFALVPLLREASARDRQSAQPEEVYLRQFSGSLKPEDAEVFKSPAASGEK

How did the “menthol-evoked outward rectifying current” value (rTRPM8; 10 μM compound, 100 µM menthol) turn out when `C[C@@H]1C(=O)N(C[C@H](Cc2ccccc2)N(Cc2ccccc2)Cc2ccccc2)[C@]1(Cc1ccccc1)C(=O)OC(C)(C)C` [RGM8-51, 4(S)-Benzyl-3S-methyl-4-(tert-butoxy)carbonyl-1-[(2′S-dibenzylamino-3′-phenyl)prop-1′-yl]-2-oxoazetidine] was run?
The value was “clearly reduced”.

And the IC50 (rTRPM8; HEK293-rTRPM8, 100 μM menthol, holding voltage −60 mV)?
Its IC50 is 970 ± 1560 nM.

And the “hTRPV1 ago. (%)” value (hTRPV1)?
Its value is 31.3 ± 3.6%.

What about the “permeation of CACO-2 cell monolayers” value (CACO-2 cell monolayers) of the same molecule?
Its value is “not able to permeate”.

And the “Permeability B-A (%)” value (CACO-2 cell monolayers; CACO-2 cell monolayer)?
Its value is 0%.

What about the “Permeability A-B (%)” value (CACO-2 cell monolayers; CACO-2 cell monolayer, percentage of compound in the acceptor cell) of the same molecule?
The value was 0%.
